The conditions of series [1]: at 64 MHz; cited from earlier work.
Series [2] in a line: T1 measurement and relaxivity of agents in solution, MR phantoms at 4.7T, 200 MHz. The note with it: nanopure water, per Gd. It counts as physicochemical. Here is the method: In experiments conducted during the course of development of the present invention, MR phantoms were imaged using a 4.7T, 200 MHz Bruker Biospec MR Imager with decreasing concentrations of 5, 6 and Gd-DOTA as indicated in FIG. 2A. T1 measurements were obtained and relaxivities were calculated for each compound using the T1 data. Relaxivities for 5, 6 and Gd-DOTA were calculated to be 5.3, 5.1, and 1.0 mM^−1 s^−1 at 200 MHz respectively. At high magnetic field strengths there remained a 5 fold increase in relaxivity per Gd(III) which indicated a 31-37 fold increase in molecular relaxivity.
6, 5 and DOTA-Gd were dissolved in nanopure water at decreasing concentrations and imaged in 1 mm capillary tubes. Concentrations (μM) were as follows from left to right for 6 (73.3, 54.9, 36.6, 22.0, 11.0, 0.0) for 5 (82.1, 61.6, 41.0, 24.6, 12.3, 0.0) and for DOTA-Gd (82.7, 62.0, 41.4, 24.8, 12.4, 0.0). T1 weighted (TR/TE=300/18.3 ms) spin-echo images were acquired at 200 MHz. […]
T1 values were determined using the following equation.
Where SI is the measured signal intensity for each TR, S0 is the signal intensity at infinity.
Relaxivities for each compound were calculated using the T1 data and gadolinium concentrations as determined by ICP-MS analysis. […]

Another series concerns NIH-3T3 cells. The series can be described thus: T1 measurement from T1 weighted cell pellet images of labeled cells. To be noted: NIH-3T3 cell pellets, 4 hours incubation. In kind it is cell-based, mouse. Here is the method:
In experiments conducted during the course of development of the present invention, 5 and 6 were used to label cells for MR imaging at equal molar concentrations of Gd(III) (FIG. 2B). […] NIH-3T3 cells were incubated for 4 hours at 37° C. and 5% CO2 in complete media containing 5, 6, and Gd-DOTA. The cells were rinsed 3 times in phosphate buffered saline and pelleted in 1 mm capillary tubes. Unlabeled cell pellets were used as a control. T1 values measured for 5, 6, Gd-DOTA and the control cell pellet were 2067.7, 2178.4, 3009.4, and 3480.3 msec respectively. […] Cell studies were done using NIH-3T3 cells cultured in Dulbecco's Modified Eagle's Media supplemented in 10% calf bovine serum and incubated at 37° C., 5% CO2. Cells were incubated with approximately equimolar concentrations of Gd for 4 hours in a 6 well plate. The cells were rinsed 2× with PBS and trypsinized. In 1.5 mL tubes, the cells were fixed for 15 min in 10% buffered neutral formalin and rinsed 2× in PBS. The cells were then pelleted in flame sealed 1 mm capillary tubes. T1 weighted (TR/TE=800/18.3 ms) spin-echo images were acquired at 200 MHz. T1 measurements were obtained by collecting a series of images using a standard spin-echo sequence with a TE of […] and a series of TR (91.5, 200, 300, 400, 500, 750, 1200, 2500, 5000, 10000), 6 signal averages, FOV 2×2 cm, collected into a matrix of 256×128.

Several values for one entry are separate records, joined by “and”; a condition that tells them apart may be missing. Identical values can stand only once.

Results on 2 compounds are retold here after patent publication US20090196829A1, “MRI CONTRAST AGENTS AND RELATED METHODS OF USE” (Northwestern University, priority 2008, published 2009).

Turning to `CNC[C@H](O)[C@@H](O)[C@H](O)[C@H](O)CO.O=C([O-])CN1CCN(CC(=O)[O-])CCN(CC(=O)O)CCN(CC(=O)[O-])CC1.[Gd+3]` [Dotarem], in series [1], the relaxivity is 3.4 mM⁻¹ s⁻¹.
For the compound `O=C([O-])CN1CCN(CC(=O)[O-])CCN(CC(=O)O)CCN(CC(=O)[O-])CC1.[Gd+3]` [Gd-DOTA], the “Relaxivity (linear regression of 1/T1 vs. Gd concentration)” value in series [2] is 1.0 mM⁻¹ s⁻¹. In the series with NIH-3T3 cells (approximately equimolar Gd(III) (7.80, 8.95, 9.00 mM Gd), 200 MHz), the T1 was 3009.4 ms and 3009.44 ms. Further, in the series with NIH-3T3 cells (vs unlabeled control pellet), the “% difference from control (T1)” value turned out to be 13.53%.
